{"source": "patent US20210121418A1", "about": "“TREATMENT OF PROTEINURIA” (SYNACT PHARMA APS, priority 2018, published 2021)", "key": {"[1]": {"tested_on": "Passive Heymann Nephritis", "experiment": "Passive Heymann Nephritis, experiment 1 (ip dosing)", "assay_type": "in vivo, rat", "conditions": "for FEAlb (fractional albumin excretion) reduced by: 10 mg/kg ip once daily; for proteinuria compared to control rats (vehicle): day 28 and day 42", "experimental": "Passive Heymann Nephritis was introduced to Male Sprague-Dawley rats by administration of anti-Fx1A serum (PTX-002S, Probetex, San Antonio, Tex., USA) Probetex, lot 169-6H) on study day 0 (1 ml serum) and on study day 7 (0.25 serum) into the jugular vein by slow injection during isoflurane anaesthesia. […] Pharmacological intervention with control compound or test compound was initiated on day 14.\nIn one experiment (experiment 1) test compound 1 dissolved in isotonic saline was given once daily by intraperitoneal (ip) injections at a dose of 10 mg/kg (n=12) with animals treated with isotonic saline injections as controls (n=12).\nIn experiment 1 twenty-four hours urine collection were performed at three occasions, at day 14 following induction of nephritis, i.e. at the time point where pharmacological intervention was initiated, at day 28 and at day 42 following induction of nephritis. For urine collection the rats were placed in metabolic cages followed by a blood sample for measurement of plasma concentrations of creatinine and albumin. Likewise, the urine concentration of creatinine and albumin were determined and so was the volume of the 24-hours urine production.\nThe blood sample was taken from the abdominal vein during pentobarbital (0.2-0.3 mL/rat ip; Dolethal, Vetoquinol via Centravet, Lapalisse, France). The collected blood was transferred into tubes coated with EDTA and centrifuged (10 minutes, 1000 g, 4° C.) for plasma collection. Plasma samples were stored at −80° C. until quantification of creatinine and Albumin.\nAlbumin and creatinine in urine and plasma were quantified using a ABX Pentra 400 Clinical Chemistry analyzer (HORIBA).\nAlbumin excretion rate was determined as follows:\n24 hours urine production×concentration of Albumin in urine.\nFractional Albumin excretion was determined as follows:\n((Urine concentration of […]×24 hours urine production)/plasma concentration of albumin)/Creatinine Clearance×100\nAll data presented as mean±Standard error of mean (SE). Statistical analyses were made by standard unpaired t-test, with p<0.05 considered statistical significant"}, "[2]": {"tested_on": "Passive Heymann Nephritis", "experiment": "Passive Heymann Nephritis, experiment 2 (oral gavage vs ACTH(1-24))", "assay_type": "in vivo, rat", "conditions": "4 weeks treatment", "experimental": "Passive Heymann Nephritis was introduced to Male Sprague-Dawley rats by administration of anti-Fx1A serum (PTX-002S, Probetex, San Antonio, Tex., USA) Probetex, lot 169-6H) on study day 0 (1 ml serum) and on study day 7 (0.25 serum) into the jugular vein by slow injection during isoflurane anaesthesia. […] In another experiment (experiment 2) test compound 1 was given once daily by oral gavage. […] In this experiment treatment effect of test compound 1 was compared to the effect of ACTH(1-24) as ACTH from the literature has been described to have treatment effects on proteinuria in the applied experimental model. […] Likewise, the urine concentration of creatinine and albumin were determined and so was the volume of the 24-hours urine production. The blood sample was taken from the abdominal vein during pentobarbital (0.2-0.3 mL/rat ip; Dolethal, Vetoquinol via […], France). The collected blood was transferred into tubes coated with EDTA and centrifuged (10 minutes, 1000 g, 4° C.) for plasma collection. Plasma samples were stored at -80° C. until quantification of creatinine and Albumin. […] Statistical analyses were made by standard unpaired t-test, with p<0.05 considered statistical significant"}, "CYP1A2": {"tested_on": "CYP1A2", "experiment": "CYP1A2 induction in human hepatocyte", "assay_type": "in vitro ADME", "conditions": "10 μM"}, "[3]": {"experiment": "Effect of meal timing and apple juice on absorption of the suspension", "assay_type": "in vivo", "experimental": "The effect of food intake on the absorption of AP1189 in the current suspension formulation has not been systematically evaluated. However, it has been shown that the plasma profile of the compound, whether the first meal was served 1 hour or 4 hours post-dosing in the fasting state, is very similar."}, "MC1R": {"tested_on": "MC1R", "conditions": "cited from earlier work"}, "MC3R": {"tested_on": "MC3R", "conditions": "cited from earlier work"}, "macrophages": {"tested_on": "macrophages", "conditions": "cited from earlier work"}, "melanocytes": {"tested_on": "melanocytes", "conditions": "cited from earlier work"}, "peritonitis": {"tested_on": "peritonitis", "conditions": "oral; cited from earlier work"}, "[4]": {"tested_on": "experimental inflammatory arthritis", "conditions": "in vivo; cited from earlier work"}, "clinical [5]": {"experiment": "clinical", "conditions": "male, human, plasma"}, "clinical [6]": {"experiment": "clinical", "conditions": "human, plasma, oral, 200 mg"}, "[7]": {"experiment": "Phase I Part I, single ascending dose, oral suspension (PK and safety)"}, "[8]": {"experiment": "Phase I Part IV, 14-day repeated dose, oral suspension (PK and safety)", "conditions": "for C Max (mean +/− SD, N = 9) / C Trough (Mean +/− SD, N = 9): steady conditions"}}, "data": [{"smiles": "NC(N)=N/N=C/C=C/c1cccn1-c1ccccc1[N+](=O)[O-]", "note": "[AP1189, (E)-N-trans-{3-[1-(2-nitrophenyl)-1H-pyrrol-2-yl]-allylidene}-aminoguanidium acetate]", "values": [{"measurement": "reduction in albumin excretion rate", "setting": "[1]; 10 mg/kg ip once daily from day 14, day 28", "value": "31±8", "unit": "%"}, {"measurement": "reduction in albumin excretion rate", "setting": "[1]; 10 mg/kg ip once daily from day 14, day 42", "value": "48±10", "unit": "%"}, {"measurement": "FEAlb (fractional albumin excretion) reduced by", "setting": "[1]; day 28", "value": "48±5", "unit": "%"}, {"measurement": "FEAlb (fractional albumin excretion) reduced by", "setting": "[1]; day 42", "value": "45±11", "unit": "%"}, {"measurement": "proteinuria compared to control rats (vehicle)", "setting": "[1]", "value": "significantly reduces proteinuria"}, {"measurement": "proteinuria compared to control rats (vehicle)", "setting": "[1]; listed as test compound 1", "value": "significant reduction in proteinuria"}, {"measurement": "reduction in albumin excretion rate", "setting": "[1]; day 482 as printed in FIG. 1 legend", "value": "48±10", "unit": "%"}, {"measurement": "GFR (creatinine clearance)", "setting": "[2]; 20 mg/kg oral gavage", "value": "3.12 ± 0.14", "unit": "mL/min"}, {"measurement": "fraction albumin excretion (FEAlb)", "setting": "[2]; 20 mg/kg oral gavage", "value": "0.045±0.04", "unit": "%"}, {"measurement": "fraction albumin excretion (FEAlb)", "setting": "[2]; 40 mg/kg oral gavage", "value": "0.35±0.05", "unit": "%"}, {"measurement": "CYP1A2 induction", "setting": "CYP1A2", "value": "signal for CYP1A2 induction has been observed"}, {"measurement": "absorption with a glass of apple juice immediately after dosing", "setting": "[3]", "value": "does not reduce the absorption"}, {"measurement": "plasma profile, first meal 1 hour or 4 hours post-dosing", "setting": "[3]; dosing in the fasting state", "value": "very similar"}, {"measurement": "ERK1/2 phosphorylation", "setting": "MC1R", "value": "cause ERK1/2 phosphorylation"}, {"measurement": "canonical cAMP generation", "setting": "MC1R", "value": "does not induce canonical cAMP generation"}, {"measurement": "ERK1/2 phosphorylation", "setting": "MC3R", "value": "cause ERK1/2 phosphorylation"}, {"measurement": "canonical cAMP generation", "setting": "MC3R", "value": "does not induce canonical cAMP generation"}, {"measurement": "cytokine release", "setting": "macrophages", "value": "reduce cytokine release"}, {"measurement": "melanogenesis", "setting": "melanocytes", "value": "no melanogenesis was induced"}, {"measurement": "anti-inflammatory actions in peritonitis", "setting": "peritonitis", "value": "elicits anti-inflammatory actions in peritonitis and accelerated the resolution phase"}, {"measurement": "macroscopic and histological parameters of joint disruption", "setting": "[4]", "value": "significant reduction of macroscopic and histological parameters of joint disruption"}, {"measurement": "Vd/F", "setting": "clinical [5]; oral", "value": "556 to 784", "unit": "L"}, {"measurement": "half-life", "setting": "clinical [5]; oral", "value": "~20", "unit": "h"}, {"measurement": "Tmax", "setting": "clinical [5]; po", "value": "1 to 4", "unit": "h"}, {"measurement": "Cmax", "setting": "clinical [6]", "value": "≤ 900", "unit": "ng/mL"}, {"measurement": "Cmax and AUCs, female compared to male subjects", "setting": "[7]; 400 mg", "value": "slightly increased"}, {"measurement": "apparent volume of distribution, female compared to male", "setting": "[7]; 400 mg", "value": "similar"}, {"measurement": "exposure at maximum administrated dose above expected therapeutic exposure level", "setting": "[7]; 800 mg", "value": "more than 10 ×"}, {"measurement": "increase of ALT above the normal upper value", "setting": "[7]; 400-800 mg", "value": "up to 1.6"}, {"measurement": "TEAEs considered related to the study treatment", "setting": "[7]; after administration of 200 to 800 mg", "value": 21, "unit": "events"}, {"measurement": "apparent clearance", "setting": "[7]; female subjects, 400 mg", "value": 17.26, "unit": "L/h"}, {"measurement": "QTcF and other cardiac parameters, 24-hours Holter ECG", "setting": "[7]; in vivo", "value": "No AP1189 associated increases in QTcF"}, {"measurement": "changes in vital signs", "setting": "[7]; in vivo", "value": "No treatment-related changes in vital signs"}, {"measurement": "frequency of related gastrointestinal TEAEs vs dose", "setting": "[7]; in vivo", "value": "increased with the dose"}, {"measurement": "subjects with isolated increases in aminotransferases", "setting": "[7]; male subjects on active IMP, 400, 600, 800 mg", "value": 4, "unit": "subjects"}, {"measurement": "inter-individual variability for Cmax and AUCs", "setting": "[7]; male subjects, 50-800 mg", "value": "< 36", "unit": "%"}, {"measurement": "severe or serious adverse events", "setting": "[7]; single doses 15-800 mg", "value": "No severe AEs nor serious AEs were reported"}, {"measurement": "C Max (mean +/− SD, N = 9)", "setting": "[8]; 50 mg once daily", "value": "180 ± 38", "unit": "ng/mL"}, {"measurement": "C Trough (Mean +/− SD, N = 9)", "setting": "[8]; 50 mg once daily", "value": "46 ± 14", "unit": "ng/mL"}, {"measurement": "C Max (mean +/− SD, N = 9)", "setting": "[8]; 100 mg once daily", "value": "427 ± 76", "unit": "ng/mL"}, {"measurement": "C Trough (Mean +/− SD, N = 9)", "setting": "[8]; 100 mg once daily", "value": "100 ± 25", "unit": "ng/mL"}, {"measurement": "exposure at maximum administrated dose above expected therapeutic exposure level", "setting": "[8]; 200 mg", "value": 5, "unit": "×"}, {"measurement": "exposure based on Cmax vs expected therapeutic range", "setting": "[8]; 200 mg, group", "value": "≤ 5", "unit": "×"}, {"measurement": "exposure based on Cmax vs expected therapeutic range", "setting": "[8]; 200 mg, individual with the highest exposure", "value": "more than 7 ×"}, {"measurement": "C Trough (Mean +/− SD, N = 9)", "setting": "[8]; 300 mg once daily", "value": "186 ± 45", "unit": "ng/mL"}, {"measurement": "severe or serious adverse events", "setting": "[8]; 50, 100 or 200 mg once daily, 14 days", "value": "No severe AEs nor serious AEs were reported"}, {"measurement": "steady state achieved", "setting": "[8]; Cohort 1, 50 mg once daily", "value": 7, "unit": "days"}, {"measurement": "peak increase compared to cohort 1", "setting": "[8]; Cohort 2, 100 mg vs 50 mg", "value": "approximately 2 fold"}, {"measurement": "subjects with isolated increases in aminotransferases", "setting": "[8]; Cohort 3 (200 mg), treated with active", "value": 3, "unit": "subjects"}, {"measurement": "time Cmax was reached post dosing", "setting": "[8]; Cohort 3, 200 mg once daily", "value": "1 to 2", "unit": "h"}, {"measurement": "safety profile", "setting": "[8]; for 50 mg or 100 mg doses for four weeks", "value": "good safety profile"}, {"measurement": "TEAEs considered possibly related to the study treatment", "setting": "[8]; gastrointestinal, 50 mg and 200 mg dose levels", "value": 4, "unit": "events"}, {"measurement": "QTcF, repeated standard 12 lead safety ECG", "setting": "[8]; in vivo", "value": "No individual QTcF clinically significant values were observed"}]}]}
